Laboratory results: ChEMBL document CHEMBL1201862, “PubChem BioAssay data set” (2004)
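Following 48 hours of exposure in 96-well plates, responses at five concentrations were used to interpolate endpoints linearly. Abbreviation: GI50, concentration required for 50% inhibition of growth.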 The source made the active and inactive calls. Cut-off read from the data, not from the text of the source: active = GI50 up to about 1.1 µM and inactive = higher.

Experiments:
Experiment in all cases: NCI-60 cell line screen, 48 h
NCI-H23 = test system: NCI-H23
ACHN = test system: ACHN
CCRF-CEM = test system: CCRF-CEM
SNB-75 = test system: SNB-75
NCI/ADR-RES = test system: NCI/ADR-RES
U-251 = test system: U-251
OVCAR-5 = test system: OVCAR-5
HOP-62 = test system: HOP-62
Malme-3M = test system: Malme-3M
OVCAR-8 = test system: OVCAR-8
Hs-578T = test system: Hs-578T
MOLT-4 = test system: MOLT-4
CAKI-1 = test system: CAKI-1
SF-295 = test system: SF-295
NCI-H226 = test system: NCI-H226
COLO 205 = test system: COLO 205
NCI-H460 = test system: NCI-H460
UO-31 = test system: UO-31
MDA-MB-231 = test system: MDA-MB-231
MDA-MB-435 = test system: MDA-MB-435

SMILES | GI50 (NCI-H23) | GI50 (ACHN) | GI50 (CCRF-CEM) | GI50 (SNB-75) | GI50 (NCI/ADR-RES) | GI50 (U-251) | GI50 (OVCAR-5) | GI50 (HOP-62) | GI50 (Malme-3M) | GI50 (OVCAR-8) | GI50 (Hs-578T) | GI50 (MOLT-4) | GI50 (CAKI-1) | GI50 (SF-295) | GI50 (NCI-H226) | GI50 (COLO 205) | GI50 (NCI-H460) | GI50 (UO-31) | GI50 (MDA-MB-231) | GI50 (MDA-MB-435)
CCOC(=O)NN(C(=O)OCC)C(=C(c1ccccc1)N1CCOCC1)N(NC(=O)OCC)C(=O)OCC | > 100 µM (inactive) | > 100 µM (inactive) | > 100 µM (inactive) | 44 µM (inactive) | > 100 µM (inactive) | > 100 µM (inactive) | > 100 µM (inactive) | > 100 µM (inactive) | > 100 µM (inactive) | > 100 µM (inactive) | > 100 µM (inactive) | > 100 µM (inactive) | > 100 µM (inactive) | > 100 µM (inactive) | > 100 µM (inactive) | > 100 µM (inactive) | > 100 µM (inactive) | 58.5 µM (inactive) | > 100 µM (inactive) | > 100 µM (inactive)
Clc1ccccc1/C=C/c1nsc(/C=C/c2ccccc2Cl)n1 | – | 50.4 µM (inactive) | 22.7 µM (inactive) | 71.4 µM (inactive) | 45.2 µM (inactive) | 34.8 µM (inactive) | > 100 µM (inactive) | 36.6 µM (inactive) | 53.7 µM (inactive) | 94 µM (inactive) | > 100 µM (inactive) | 33.5 µM (inactive) | > 100 µM (inactive) | 54 µM (inactive) | > 100 µM (inactive) | 47.4 µM (inactive) | 21.4 µM (inactive) | > 100 µM (inactive) | 60 µM (inactive) | 42.6 µM (inactive)
CCOC(=O)C1C(O)CC2c3ccccc3-c3ccccc3C21 (stereo not drawn) | 42.5 µM (inactive) | 27.3 µM (inactive) | 8.85 µM (inactive) | 27.1 µM (inactive) | 40.5 µM (inactive) | 23.8 µM (inactive) | > 100 µM (inactive) | 31.2 µM (inactive) | > 100 µM (inactive) | 21.5 µM (inactive) | 21.3 µM (inactive) | > 100 µM (inactive) | > 100 µM (inactive) | 43.7 µM (inactive) | 3.2 µM (inactive) | > 100 µM (inactive) | > 100 µM (inactive) | > 100 µM (inactive) | 25.9 µM (inactive) | 41.8 µM (inactive)
COc1cc(C2c3[nH]c4ccccc4c3[C@@H](Nc3ccc(C#N)cc3)[C@H]3COC(=O)N23)cc(OC)c1O (stereo partly drawn) | 0.238 µM (active) | 0.155 µM (active) | 0.054 µM (active) | 0.227 µM (active) | 9.98 µM (inactive) | 0.175 µM (active) | 0.316 µM (active) | 0.192 µM (active) | 0.279 µM (active) | 0.227 µM (active) | 0.265 µM (active) | 0.0188 µM (active) | 0.213 µM (active) | 0.164 µM (active) | 0.19 µM (active) | 0.644 µM (active) | 0.0288 µM (active) | 0.802 µM (active) | 0.372 µM (active) | 0.388 µM (active)
COc1c(C(=O)/C(=N/Nc2ccccc2)C(C)=O)c(O)c(OC)c2occc12 | 33.3 µM (inactive) | 50.4 µM (inactive) | 74.1 µM (inactive) | 19.8 µM (inactive) | 56.5 µM (inactive) | 59.7 µM (inactive) | > 100 µM (inactive) | 97.5 µM (inactive) | 24.5 µM (inactive) | 62.2 µM (inactive) | 37.5 µM (inactive) | 48.3 µM (inactive) | > 100 µM (inactive) | 48.9 µM (inactive) | 52.1 µM (inactive) | 32.2 µM (inactive) | 38.8 µM (inactive) | 17.2 µM (inactive) | 18.5 µM (inactive) | 34 µM (inactive)
Cc1ccc2nc(C(C)C)c(=O)[nH]c2c1 | > 100 µM (inactive) | > 100 µM (inactive) | > 100 µM (inactive) | 42.4 µM (inactive) | 54.7 µM (inactive) | 47 µM (inactive) | > 100 µM (inactive) | 17.2 µM (inactive) | > 100 µM (inactive) | 26.1 µM (inactive) | 42.3 µM (inactive) | > 100 µM (inactive) | 43.4 µM (inactive) | 71 µM (inactive) | > 100 µM (inactive) | > 100 µM (inactive) | > 100 µM (inactive) | > 100 µM (inactive) | > 100 µM (inactive) | > 100 µM (inactive)
O=C(CNc1ccccc1[N+](=O)[O-])Nn1cnc2ccc(S(=O)(=O)Nc3ccccc3[N+](=O)[O-])cc2c1=O | > 100 µM (inactive) | > 100 µM (inactive) | > 100 µM (inactive) | > 100 µM (inactive) | > 100 µM (inactive) | > 100 µM (inactive) | > 100 µM (inactive) | > 100 µM (inactive) | > 100 µM (inactive) | > 100 µM (inactive) | 22.1 µM (inactive) | > 100 µM (inactive) | > 100 µM (inactive) | > 100 µM (inactive) | > 100 µM (inactive) | > 100 µM (inactive) | > 100 µM (inactive) | 73.8 µM (inactive) | > 100 µM (inactive) | > 100 µM (inactive)
NC(=O)NNc1nc(-c2ccccc2)cs1 | – | > 100 µM (inactive) | 47 µM (inactive) | > 100 µM (inactive) | > 100 µM (inactive) | > 100 µM (inactive) | > 100 µM (inactive) | > 100 µM (inactive) | > 100 µM (inactive) | > 100 µM (inactive) | > 100 µM (inactive) | > 100 µM (inactive) | > 100 µM (inactive) | > 100 µM (inactive) | > 100 µM (inactive) | > 100 µM (inactive) | > 100 µM (inactive) | > 100 µM (inactive) | > 100 µM (inactive) | > 100 µM (inactive)
CC(C)(CO)CNc1nc(N)nc(Cl)c1N | > 100 µM (inactive) | > 100 µM (inactive) | > 100 µM (inactive) | > 100 µM (inactive) | > 100 µM (inactive) | > 100 µM (inactive) | > 100 µM (inactive) | > 100 µM (inactive) | > 100 µM (inactive) | > 100 µM (inactive) | > 100 µM (inactive) | > 100 µM (inactive) | > 100 µM (inactive) | > 100 µM (inactive) | 67.3 µM (inactive) | > 100 µM (inactive) | > 100 µM (inactive) | > 100 µM (inactive) | > 100 µM (inactive) | > 100 µM (inactive)
CC(=O)O[C@H]1CC[C@@]2(C)C(=CC[C@H]3[C@@H]4CC[C@H](c5cc(C(F)(F)F)n(C(C)=O)n5)[C@@]4(C)CC[C@@H]32)C1 | 6.05 µM (inactive) | 7.8 µM (inactive) | 2.98 µM (inactive) | 8.22 µM (inactive) | 4.83 µM (inactive) | 4.79 µM (inactive) | 9.4 µM (inactive) | 8.2 µM (inactive) | > 35 µM (inactive) | 5.57 µM (inactive) | 26.8 µM (inactive) | 2.47 µM (inactive) | 12 µM (inactive) | 4.85 µM (inactive) | 3.24 µM (inactive) | 3.62 µM (inactive) | 2.63 µM (inactive) | 1.67 µM (inactive) | 4.98 µM (inactive) | 9.27 µM (inactive)
Cc1ncc2c(=O)c3c(oc2n1)c1ccccc1n3Cc1ccccc1 | > 100 µM (inactive) | 53.5 µM (inactive) | > 100 µM (inactive) | 29.5 µM (inactive) | > 100 µM (inactive) | 75.5 µM (inactive) | > 100 µM (inactive) | 27.4 µM (inactive) | > 100 µM (inactive) | > 100 µM (inactive) | > 100 µM (inactive) | > 100 µM (inactive) | > 100 µM (inactive) | > 100 µM (inactive) | > 100 µM (inactive) | > 100 µM (inactive) | > 100 µM (inactive) | > 100 µM (inactive) | > 100 µM (inactive) | > 100 µM (inactive)
CCOC(=O)c1c2c(n(C)c1-c1ccccc1)C(=O)C(C)=CC2=O | 11.6 µM (inactive) | 7.28 µM (inactive) | 2.51 µM (inactive) | 14.9 µM (inactive) | 7.83 µM (inactive) | 7.8 µM (inactive) | 6.05 µM (inactive) | 17.3 µM (inactive) | 9.04 µM (inactive) | 5.7 µM (inactive) | 18.4 µM (inactive) | 2.55 µM (inactive) | 13.5 µM (inactive) | 19 µM (inactive) | 11 µM (inactive) | 1.57 µM (inactive) | 20.8 µM (inactive) | 12.2 µM (inactive) | 2.08 µM (inactive) | 1.91 µM (inactive)
O=C1c2cccnc2-c2nccc3c2c1nc1ccc(Br)cc13 | 0.0313 µM (active) | 0.0263 µM (active) | < 0.01 µM (active) | 0.129 µM (active) | 0.034 µM (active) | 0.0363 µM (active) | 0.106 µM (active) | 0.031 µM (active) | 0.102 µM (active) | 0.0662 µM (active) | 0.12 µM (active) | 0.184 µM (active) | 0.0536 µM (active) | 0.0401 µM (active) | 0.0199 µM (active) | 0.438 µM (active) | 0.065 µM (active) | 0.0557 µM (active) | < 0.0201 µM (active) | 0.0887 µM (active)
Cc1nnc2n1-c1ccccc1N(Cc1ccccc1)CC2 | 60 µM (inactive) | 49.5 µM (inactive) | 17.6 µM (inactive) | 52.6 µM (inactive) | 13.8 µM (inactive) | 50 µM (inactive) | > 100 µM (inactive) | > 100 µM (inactive) | 85.1 µM (inactive) | 56 µM (inactive) | 58.9 µM (inactive) | 23.8 µM (inactive) | 38 µM (inactive) | 75 µM (inactive) | 46.8 µM (inactive) | 38.1 µM (inactive) | > 100 µM (inactive) | 34.5 µM (inactive) | > 100 µM (inactive) | 51.4 µM (inactive)
